How the values were obtained:
Trachea = experiment: Induction of smooth muscle relaxation in male Dunkin-Hartley guinea pig trachea strips assessed as maximal relaxation of histamine phosphate-induced guinea pig airway smooth muscle contraction relative to control; details: Cavia porcellus
[1] = target: Beta-1 adrenergic receptor (Homo sapiens, UniProt P08588)
Description: Agonist activity at human beta1 adrenoceptor expressed in HEK293 cells assessed as induction of accumulation of cAMP by HTRF assay

[2] = target: Beta-2 adrenergic receptor (Homo sapiens, UniProt P07550)
Description: Agonist activity at human beta2 adrenoceptor expressed in HEK293 cells assessed as induction of accumulation of cAMP by HTRF assay

[3] = MRT (0 to infinity) in male Balb/c mouse at 2 mg/kg, iv measured upto 24 hrs by LC-MS/MS analysis; assay type: ADME, organism-based; details: in vivo
[4] = Oral bioavailability in male Balb/c mouse at 10 mg/kg measured upto 24 hrs by LC-MS/MS analysis; assay type: ADME, organism-based; details: in vivo
[5] = AUC (0 to infinity) in male Balb/c mouse at 10 mg/kg, po measured upto 24 hrs by LC-MS/MS analysis; assay type: ADME, organism-based; details: in vivo
[6] = Tmax in male Balb/c mouse at 2 mg/kg, iv measured upto 24 hrs by LC-MS/MS analysis; assay type: ADME, organism-based; details: in vivo
[7] = Cmax in male Balb/c mouse at 2 mg/kg, iv measured upto 24 hrs by LC-MS/MS analysis; assay type: ADME, organism-based; details: in vivo
[8] = MRT in male Balb/c mouse at 2 mg/kg, iv measured upto 24 hrs by LC-MS/MS analysis; assay type: ADME, organism-based; details: in vivo
[9] = Clearance in male Balb/c mouse at 2 mg/kg, iv measured upto 24 hrs by LC-MS/MS analysis; assay type: ADME, organism-based; details: in vivo
[10] = MRT in male Balb/c mouse at 10 mg/kg, po measured upto 24 hrs by LC-MS/MS analysis; assay type: ADME, organism-based; details: in vivo
[11] = Apparent volume of distribution in male Balb/c mouse at 2 mg/kg, iv measured upto 24 hrs by LC-MS/MS analysis; assay type: ADME, organism-based; details: in vivo, read-out: Vd(app)
[12] = MRT (0 to infinity) in male Balb/c mouse at 10 mg/kg, po measured upto 24 hrs by LC-MS/MS analysis; assay type: ADME, organism-based; details: in vivo
[13] = Cmax in male Balb/c mouse at 10 mg/kg, po measured upto 24 hrs by LC-MS/MS analysis; assay type: ADME, organism-based; details: in vivo
[14] = AUC (0 to infinity) in male Balb/c mouse at 2 mg/kg, iv measured upto 24 hrs by LC-MS/MS analysis; assay type: ADME, organism-based; details: in vivo
[15] = Half life in male Balb/c mouse at 10 mg/kg, po measured upto 24 hrs by LC-MS/MS analysis; assay type: ADME, organism-based; details: in vivo
[16] = Half life in male Balb/c mouse at 2 mg/kg, iv measured upto 24 hrs by LC-MS/MS analysis; assay type: ADME, organism-based; details: in vivo
[17] = AUC (0 to t) in male Balb/c mouse at 2 mg/kg, iv measured upto 24 hrs by LC-MS/MS analysis; assay type: ADME, organism-based; details: in vivo
[18] = AUC (0 to t) in male Balb/c mouse at 10 mg/kg, po measured upto 24 hrs by LC-MS/MS analysis; assay type: ADME, organism-based; details: in vivo
[19] = Tmax in male Balb/c mouse at 10 mg/kg, po measured upto 24 hrs by LC-MS/MS analysis; assay type: ADME, organism-based; details: in vivo

Beta-2 adrenergic receptor, sequence (P07550 whole entry): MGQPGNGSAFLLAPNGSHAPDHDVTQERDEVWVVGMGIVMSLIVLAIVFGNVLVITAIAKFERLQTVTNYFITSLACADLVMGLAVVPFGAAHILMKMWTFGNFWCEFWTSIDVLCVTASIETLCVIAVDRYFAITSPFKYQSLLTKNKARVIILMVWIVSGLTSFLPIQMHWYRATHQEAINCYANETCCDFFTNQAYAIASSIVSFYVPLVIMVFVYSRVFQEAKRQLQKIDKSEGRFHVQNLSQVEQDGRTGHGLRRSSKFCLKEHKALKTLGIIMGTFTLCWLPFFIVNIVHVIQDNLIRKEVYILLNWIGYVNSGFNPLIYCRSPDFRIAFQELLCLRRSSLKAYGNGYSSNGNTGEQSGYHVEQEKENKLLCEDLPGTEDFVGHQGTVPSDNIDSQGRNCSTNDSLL
Beta-1 adrenergic receptor, sequence (P08588 whole entry): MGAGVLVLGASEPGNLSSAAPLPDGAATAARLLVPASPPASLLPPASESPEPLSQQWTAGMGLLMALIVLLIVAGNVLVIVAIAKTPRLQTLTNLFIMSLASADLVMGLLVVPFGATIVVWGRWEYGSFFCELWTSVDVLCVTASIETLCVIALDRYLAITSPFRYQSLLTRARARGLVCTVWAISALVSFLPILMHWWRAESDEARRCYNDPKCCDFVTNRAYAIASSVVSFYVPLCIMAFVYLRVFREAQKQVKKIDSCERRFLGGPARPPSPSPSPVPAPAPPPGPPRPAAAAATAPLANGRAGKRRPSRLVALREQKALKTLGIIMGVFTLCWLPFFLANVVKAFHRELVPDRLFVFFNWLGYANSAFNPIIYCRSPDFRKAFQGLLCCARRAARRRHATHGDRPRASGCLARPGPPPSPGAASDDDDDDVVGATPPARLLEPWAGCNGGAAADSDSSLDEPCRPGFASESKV

Row | Structure (SMILES) | Emax (Trachea) | EC50 [1] | EC50 [2] | further results
1 | CCCNCC(O)c1ccc(O)c2c1OCC(=O)N2 (stereo unspecified) | 60.5% | 14.5 nM | 0.0316 nM | –
2 | O=C1COc2c(C(O)CNCCCc3ccccc3F)ccc(O)c2N1 (stereo unspecified) | 90.5% | 0.17 nM | 0.00479 nM | –
3 | COc1cccc(CCNCC(O)c2ccc(O)c3c2OCC(=O)N3)c1 (stereo unspecified) | – | – | 0.00871 nM | –
4 | O=C1COc2c(C(O)CNCCCc3ccc(C(F)(F)F)cc3)ccc(O)c2N1 (stereo unspecified) | 132% | 1.2 nM | 0.0055 nM | –
5 | O=C1COc2c(C(O)CNCCCc3ccccc3)ccc(O)c2N1 (stereo unspecified) | 237% | 0.257 nM | 0.00589 nM | –
6 | O=C1COc2c(C(O)CNCCCc3cccc(F)c3)ccc(O)c2N1 (stereo unspecified) | 126% | – | 0.00468 nM | –
7 | COc1cccc(CCCNCC(O)c2ccc(O)c3c2OCC(=O)N3)c1 (stereo unspecified) | – | – | 0.00794 nM | –
8 | COc1ccccc1CCCNCC(O)c1ccc(O)c2c1OCC(=O)N2 (stereo unspecified) | 109% | 0.178 nM | 0.00457 nM | –
9 | O=C1COc2c(C(O)CNCCc3cccc(F)c3)ccc(O)c2N1 (stereo unspecified) | 94.9% | 1.38 nM | 0.024 nM | –
10 | O=C1COc2c(C(O)CNCCC(c3ccccc3)c3ccccc3)ccc(O)c2N1 (stereo unspecified) | 63.3% | 2.24 nM | 0.0468 nM | –
11 | O=C1COc2c(C(O)CNCCCc3cccc(O)c3)ccc(O)c2N1 (stereo unspecified) | 87.4% | 0.138 nM | 0.00437 nM | –
12 | COc1ccc(CCCNCC(O)c2ccc(O)c3c2OCC(=O)N3)cc1 (stereo unspecified) | 74.2% | 0.513 nM | 0.0038 nM | –
13 | O=C1COc2c(C(O)CNCCCc3ccc(F)cc3)ccc(O)c2N1 (stereo unspecified) | 69.5% | 0.245 nM | 0.0038 nM | –
14 | CC(C)NCC(O)c1ccc(O)c2c1OCC(=O)N2 (stereo unspecified) | – | 1.82 nM | – | –
15 | Cc1ccccc1CCCNCC(O)c1ccc(O)c2c1OCC(=O)N2 (stereo unspecified) | – | 0.324 nM | – | –
16 | O=C1COc2c(C(O)CNCCc3ccccc3F)ccc(O)c2N1 (stereo unspecified) | 128% | 4.07 nM | 0.0115 nM | –
17 | O=C1COc2c(C(O)CNCCc3cccc(Cl)c3)ccc(O)c2N1 (stereo unspecified) | 65.3% | 3.72 nM | 0.0269 nM | –
18 | O=C1COc2c(C(O)CNCCOc3ccccc3)ccc(O)c2N1 (stereo unspecified) | – | 1.7 nM | – | –
19 | COc1ccccc1CCNCC(O)c1ccc(O)c2c1OCC(=O)N2.Cl (stereo unspecified) | – | – | – | MRT inf [3]: 3.43 h; F [4]: 7.65%; AUC [5]: 306 ng·h/mL; Tmax [6]: 4.98 min; Cmax [7]: 416 ng/mL; MRT [8]: 2.67 h; clearance [9]: 102 mL/min/kg; MRT [10]: 5.92 h; Vd [11]: 44 L/kg; MRT inf [12]: 6.98 h; Cmax [13]: 24 ng/mL; AUC [14]: 338 ng·h/mL; half-life [15]: 3.77 h; half-life [16]: 5.21 h; AUC(0-t) at 24 h [17]: 329 ng·h/mL; AUC(0-t) at 24 h [18]: 294 ng·h/mL; Tmax [19]: 5.33 h
20 | CCCCCCNCC(O)c1ccc(O)c2c1OCC(=O)N2 (stereo unspecified) | – | 2.19 nM | – | –

Row | Structure (SMILES) | Emax (Trachea) | EC50 [1] | EC50 [2] | further results
21 | Cc1ccc(CCCNCC(O)c2ccc(O)c3c2OCC(=O)N3)cc1 (stereo unspecified) | – | – | 0.00759 nM | –
22 | O=C1COc2c(C(O)CNCCc3ccccc3Cl)ccc(O)c2N1 (stereo unspecified) | – | 5.37 nM | – | –
23 | CCCCNCC(O)c1ccc(O)c2c1OCC(=O)N2 (stereo unspecified) | 53.3% | 16.6 nM | 0.0257 nM | –
24 | O=C1COc2c(C(O)CNCCCc3ccc(O)cc3)ccc(O)c2N1 (stereo unspecified) | 181% | 0.12 nM | 0.00575 nM | –
25 | O=C1COc2c(C(O)CNC3CC3)ccc(O)c2N1 (stereo unspecified) | 123% | 1.32 nM | 0.0224 nM | –
26 | O=C1COc2c(C(O)CNCCc3ccccc3)ccc(O)c2N1 (stereo unspecified) | – | 1.91 nM | – | –
27 | COc1ccc(CCNCC(O)c2ccc(O)c3c2OCC(=O)N3)cc1 (stereo unspecified) | 59.6% | 2.19 nM | 0.0132 nM | –
28 | O=C1COc2c(C(O)CNCCCc3cc(F)cc(F)c3)ccc(O)c2N1 (stereo unspecified) | – | 0.105 nM | – | –
29 | O=C1COc2c(C(O)CNCCCCc3ccccc3)ccc(O)c2N1 (stereo unspecified) | – | 0.309 nM | – | –
30 | COc1cc(CCCNCC(O)c2ccc(O)c3c2OCC(=O)N3)cc(OC)c1OC (stereo unspecified) | 142% | 1.58 nM | 0.0537 nM | –
31 | CC(C)(C)NCC(O)c1ccc(O)c2c1OCC(=O)N2 (stereo unspecified) | – | 2.14 nM | – | –
32 | O=C1COc2c(C(O)CNCCCc3ccccc3O)ccc(O)c2N1 (stereo unspecified) | – | 0.129 nM | – | –
33 | O=C1COc2c(C(O)CNCCc3ccc(F)cc3)ccc(O)c2N1 (stereo unspecified) | 76.7% | 3.72 nM | 0.00537 nM | –
34 | O=C1COc2c(C(O)CNCCCc3cccc(C(F)(F)F)c3)ccc(O)c2N1 (stereo unspecified) | – | 0.513 nM | – | –
35 | O=C1COc2c(C(O)CNCCc3ccc(Cl)cc3)ccc(O)c2N1 (stereo unspecified) | 86.7% | 1000 nM | 1.32 nM | –
36 | Cc1ccccc1CCNCC(O)c1ccc(O)c2c1OCC(=O)N2 (stereo unspecified) | 135% | 0.912 nM | 0.0282 nM | –
37 | Cc1cccc(CCCNCC(O)c2ccc(O)c3c2OCC(=O)N3)c1 (stereo unspecified) | – | 0.245 nM | – | –
38 | CC(C)NCC(O)c1ccc(O)c(O)c1 (stereo unspecified) [ISOPROTERENOL] | 141% | – | – | –
39 | COc1ccc(CC(C)(C)NC[C@H](O)c2cc(O)cc3c2OCC(=O)N3)cc1 [OLODATEROL] | – | 33.9 nM | – | –

Reference: ChEMBL document CHEMBL5528055, “Discovery and Identification of Novel 5-Hydroxy-4H-benzo[1,4]oxazin-3-one Derivatives as Potent β2-Adrenoceptor Agonists through Structure-Based Design, Synthesis, and Biological Evaluation” (J Med Chem, 2024)
